Measured values taken from PubChem BioAssay (NCI).
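Method: 48-hour compound exposure of cells in 96-well plates, five concentrations, linear interpolation of endpoints. Here, GI50 denotes the concentration required for 50% inhibition of growth. TGI denotes the concentration required for complete inhibition of growth.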

Columns and labels:
Test in all cases: inhibition of tumour cell growth, NCI panel, 48 h
NCI-H226 lung = tested on: NCI-H226 lung
SK-MEL-5 melanoma = tested on: SK-MEL-5 melanoma
A549 NSCLC = tested on: A549 NSCLC
HCT-15 colon = tested on: HCT-15 colon
NCI/ADR-RES ovarian = tested on: NCI/ADR-RES ovarian
OVCAR-4 ovarian = tested on: OVCAR-4 ovarian
HS 578T breast = tested on: HS 578T breast
SNB-75 CNS = tested on: SNB-75 CNS
HCT-116 colon = tested on: HCT-116 colon
RXF 393 renal = tested on: RXF 393 renal
MDA-MB-435 = tested on: MDA-MB-435
PC-3 prostate = tested on: PC-3 prostate
SK-OV-3 ovarian = tested on: SK-OV-3 ovarian
OVCAR-3 ovarian = tested on: OVCAR-3 ovarian
SNB-19 CNS = tested on: SNB-19 CNS
CCRF-CEM leukemia = tested on: CCRF-CEM leukemia
MDA-MB-231 breast = tested on: MDA-MB-231 breast
UACC-62 melanoma = tested on: UACC-62 melanoma
U251 CNS = tested on: U251 CNS
CAKI-1 renal = tested on: CAKI-1 renal
SK-MEL-28 melanoma = tested on: SK-MEL-28 melanoma
EKVX NSCLC = tested on: EKVX NSCLC
786-0 renal = tested on: 786-0 renal
NCI-H522 lung = tested on: NCI-H522 lung
HOP-62 NSCLC = tested on: HOP-62 NSCLC
SW-620 colon = tested on: SW-620 colon
NCI-H23 lung = tested on: NCI-H23 lung
HOP-92 NSCLC = tested on: HOP-92 NSCLC
LOX IMVI melanoma = tested on: LOX IMVI melanoma
T-47D breast = tested on: T-47D breast
SN12C renal = tested on: SN12C renal
HCC-2998 colon = tested on: HCC-2998 colon
NCI-H460 lung = tested on: NCI-H460 lung
UO-31 renal = tested on: UO-31 renal
MOLT-4 leukemia = tested on: MOLT-4 leukemia
HT29 colon = tested on: HT29 colon
KM12 colon = tested on: KM12 colon
DU-145 prostate = tested on: DU-145 prostate
IGROV1 ovarian = tested on: IGROV1 ovarian
HL-60(TB) leukemia = tested on: HL-60(TB) leukemia
OVCAR-5 ovarian = tested on: OVCAR-5 ovarian
MALME-3M melanoma = tested on: MALME-3M melanoma
SF-268 CNS = tested on: SF-268 CNS
UACC-257 melanoma = tested on: UACC-257 melanoma
M14 melanoma = tested on: M14 melanoma
TK-10 renal = tested on: TK-10 renal
COLO 205 colon = tested on: COLO 205 colon
BT-549 breast = tested on: BT-549 breast
SF-539 CNS = tested on: SF-539 CNS
ACHN renal = tested on: ACHN renal
RPMI-8226 leukemia = tested on: RPMI-8226 leukemia
SF-295 CNS = tested on: SF-295 CNS
K-562 leukemia = tested on: K-562 leukemia
SR leukemia = tested on: SR leukemia
A498 renal = tested on: A498 renal
MCF7 breast = tested on: MCF7 breast
SK-MEL-2 melanoma = tested on: SK-MEL-2 melanoma
OVCAR-8 ovarian = tested on: OVCAR-8 ovarian

SMILES: CC1(C)N=C(N)N=C(N)N1c1ccc(OCC(=O)Nc2ccccc2)c(Cl)c1
- GI50 (NCI-H226 lung): > 71.6 µM
- TGI (NCI-H226 lung): > 100 µM
- GI50 (SK-MEL-5 melanoma): 1080 nM
- TGI (SK-MEL-5 melanoma): > 100 µM
- GI50 (A549 NSCLC): 91.6 nM
- TGI (A549 NSCLC): > 71.8 µM
- GI50 (HCT-15 colon): 72.3 µM
- TGI (HCT-15 colon): > 100 µM
- GI50 (NCI/ADR-RES ovarian): > 100 µM
- TGI (NCI/ADR-RES ovarian): > 100 µM
- GI50 (OVCAR-4 ovarian): 15.8 µM
- TGI (OVCAR-4 ovarian): > 100 µM
- GI50 (HS 578T breast): > 100 µM
- TGI (HS 578T breast): > 100 µM
- GI50 (SNB-75 CNS): > 100 µM
- TGI (SNB-75 CNS): > 100 µM
- GI50 (HCT-116 colon): 502 nM
- TGI (HCT-116 colon): > 100 µM
- GI50 (RXF 393 renal): > 87.1 µM
- TGI (RXF 393 renal): > 100 µM
- GI50 (MDA-MB-435): 522 nM
- TGI (MDA-MB-435): > 100 µM
- GI50 (PC-3 prostate): 123 nM
- TGI (PC-3 prostate): > 66.5 µM
- GI50 (SK-OV-3 ovarian): > 60.9 µM
- TGI (SK-OV-3 ovarian): > 100 µM
- GI50 (OVCAR-3 ovarian): 8.51 µM
- TGI (OVCAR-3 ovarian): > 100 µM
- GI50 (SNB-19 CNS): 28.8 µM
- TGI (SNB-19 CNS): > 100 µM
- GI50 (CCRF-CEM leukemia): 2170 nM
- TGI (CCRF-CEM leukemia): > 100 µM
- GI50 (MDA-MB-231 breast): > 100 µM
- TGI (MDA-MB-231 breast): > 100 µM
- GI50 (UACC-62 melanoma): 569 nM
- TGI (UACC-62 melanoma): > 100 µM
- GI50 (U251 CNS): 674 nM
- TGI (U251 CNS): > 100 µM
- GI50 (CAKI-1 renal): > 85.9 µM
- TGI (CAKI-1 renal): > 100 µM
- GI50 (SK-MEL-28 melanoma): > 58.8 µM
- TGI (SK-MEL-28 melanoma): > 100 µM
- GI50 (EKVX NSCLC): 35 µM
- TGI (EKVX NSCLC): > 100 µM
- GI50 (786-0 renal): 11.1 µM
- TGI (786-0 renal): > 100 µM
- GI50 (NCI-H522 lung): 3.01 µM
- TGI (NCI-H522 lung): > 100 µM
- GI50 (HOP-62 NSCLC): 5.77 µM
- TGI (HOP-62 NSCLC): > 100 µM
- GI50 (SW-620 colon): 456 nM
- TGI (SW-620 colon): > 100 µM
- GI50 (NCI-H23 lung): 2960 nM
- TGI (NCI-H23 lung): > 100 µM
- GI50 (HOP-92 NSCLC): 68.9 µM
- TGI (HOP-92 NSCLC): > 100 µM
- GI50 (LOX IMVI melanoma): 589 nM
- TGI (LOX IMVI melanoma): > 100 µM
- GI50 (T-47D breast): > 65.8 µM
- TGI (T-47D breast): > 100 µM
- GI50 (SN12C renal): 647 nM
- TGI (SN12C renal): > 100 µM
- GI50 (HCC-2998 colon): 4.99 µM
- TGI (HCC-2998 colon): > 100 µM
- GI50 (NCI-H460 lung): 74.8 nM
- TGI (NCI-H460 lung): > 100 µM
- GI50 (UO-31 renal): > 100 µM
- TGI (UO-31 renal): > 100 µM
- GI50 (MOLT-4 leukemia): 1190 nM
- TGI (MOLT-4 leukemia): > 59.6 µM
- GI50 (HT29 colon): 333 nM
- TGI (HT29 colon): > 100 µM
- GI50 (KM12 colon): 842 nM
- TGI (KM12 colon): > 100 µM
- GI50 (DU-145 prostate): 1150 nM
- TGI (DU-145 prostate): > 100 µM
- GI50 (IGROV1 ovarian): 688 nM
- TGI (IGROV1 ovarian): > 100 µM
- GI50 (HL-60(TB) leukemia): 922 nM
- TGI (HL-60(TB) leukemia): > 100 µM
- GI50 (OVCAR-5 ovarian): > 100 µM
- TGI (OVCAR-5 ovarian): > 100 µM
- GI50 (MALME-3M melanoma): > 71.4 µM
- TGI (MALME-3M melanoma): > 100 µM
- GI50 (SF-268 CNS): 677 nM
- TGI (SF-268 CNS): > 100 µM
- GI50 (UACC-257 melanoma): > 25.4 µM
- TGI (UACC-257 melanoma): > 100 µM
- GI50 (M14 melanoma): 13.8 µM
- TGI (M14 melanoma): > 100 µM
- GI50 (TK-10 renal): 32.4 µM
- TGI (TK-10 renal): > 100 µM
- GI50 (COLO 205 colon): 18.3 µM
- TGI (COLO 205 colon): > 100 µM
- GI50 (BT-549 breast): 22.3 µM
- TGI (BT-549 breast): > 100 µM
- GI50 (SF-539 CNS): 2100 nM
- TGI (SF-539 CNS): > 100 µM
- GI50 (ACHN renal): 62.9 µM
- TGI (ACHN renal): > 100 µM
- GI50 (RPMI-8226 leukemia): 9.89 µM
- TGI (RPMI-8226 leukemia): > 100 µM
- GI50 (SF-295 CNS): 702 nM
- TGI (SF-295 CNS): > 100 µM
- GI50 (K-562 leukemia): 446 nM
- TGI (K-562 leukemia): > 100 µM
- GI50 (SR leukemia): 515 nM
- TGI (SR leukemia): > 51.6 µM
- GI50 (A498 renal): > 58.1 µM
- TGI (A498 renal): > 100 µM
- GI50 (MCF7 breast): 886 nM
- TGI (MCF7 breast): > 100 µM
- GI50 (SK-MEL-2 melanoma): > 93.9 µM
- TGI (SK-MEL-2 melanoma): > 100 µM
- GI50 (OVCAR-8 ovarian): 6.69 µM
- TGI (OVCAR-8 ovarian): > 100 µM
